Tests used:
[1] = tested on: KM12 colon cancer cell line; test: NCI-60 human tumor cell line screen; type: cell-based
Description: (§1) We first tested the impact of SAB298 on NCI-60 human tumor cell lines that included eight melanomas (performed by the NCI Development Therapeutics Program).
(§2) SFK-inhibitors were tested on a panel of NCI-60 cell lines (Supplementary Table 1) and 30 melanoma cell lines and NBMEL, i.e., normal human melanocytes isolated from a newborn foreskin (Table 1 and Supplementary Table 2). The Yale melanoma cohort designated YU originated from tumors excised to improve patient quality of life and used with participants’ informed consent according to Health Insurance Portability and Accountability Act (HIPAA) regulations with Human Investigative Committee protocol.
(§3) Supplementary Table 1: Cellular activity of SAB298 in a Panel of NCI-60 cancer cell lines*
(§4) measured protein; and TI is LC50/GI50.
(§5) Supplementary Table 2: Description of Melanoma Cell lines. See Supplementary_Table_2

NCI-1460 NSCLC cell line = test: NCI-60 human tumor cell line screen; type: cell-based
Description: as §1, §2, §3, §4, §5

[2] = tested on: SF-268 CNS cancer cell line; test: NCI-60 human tumor cell line screen; type: cell-based
Description: as §1, §2, §3, §4, §5

SR leukemia cell line = test: NCI-60 human tumor cell line screen; type: cell-based
Description: as §1, §2, §3, §4, §5

[3] = tested on: UACC-62 melanoma cell line; test: NCI-60 human tumor cell line screen; type: cell-based
Description: as §1, §2, §3, §4, §5

ABL1 = biological target: T1, ABL1 (Homo sapiens, UniProt P00519); test: Radioisotope filter activity assay, recombinant kinase; type: biochemical; conditions: 10 point dose response, 10 µM ATP
T1 construct: purchased Reaction Biology Corporation
T1 sequence (P00519 whole entry): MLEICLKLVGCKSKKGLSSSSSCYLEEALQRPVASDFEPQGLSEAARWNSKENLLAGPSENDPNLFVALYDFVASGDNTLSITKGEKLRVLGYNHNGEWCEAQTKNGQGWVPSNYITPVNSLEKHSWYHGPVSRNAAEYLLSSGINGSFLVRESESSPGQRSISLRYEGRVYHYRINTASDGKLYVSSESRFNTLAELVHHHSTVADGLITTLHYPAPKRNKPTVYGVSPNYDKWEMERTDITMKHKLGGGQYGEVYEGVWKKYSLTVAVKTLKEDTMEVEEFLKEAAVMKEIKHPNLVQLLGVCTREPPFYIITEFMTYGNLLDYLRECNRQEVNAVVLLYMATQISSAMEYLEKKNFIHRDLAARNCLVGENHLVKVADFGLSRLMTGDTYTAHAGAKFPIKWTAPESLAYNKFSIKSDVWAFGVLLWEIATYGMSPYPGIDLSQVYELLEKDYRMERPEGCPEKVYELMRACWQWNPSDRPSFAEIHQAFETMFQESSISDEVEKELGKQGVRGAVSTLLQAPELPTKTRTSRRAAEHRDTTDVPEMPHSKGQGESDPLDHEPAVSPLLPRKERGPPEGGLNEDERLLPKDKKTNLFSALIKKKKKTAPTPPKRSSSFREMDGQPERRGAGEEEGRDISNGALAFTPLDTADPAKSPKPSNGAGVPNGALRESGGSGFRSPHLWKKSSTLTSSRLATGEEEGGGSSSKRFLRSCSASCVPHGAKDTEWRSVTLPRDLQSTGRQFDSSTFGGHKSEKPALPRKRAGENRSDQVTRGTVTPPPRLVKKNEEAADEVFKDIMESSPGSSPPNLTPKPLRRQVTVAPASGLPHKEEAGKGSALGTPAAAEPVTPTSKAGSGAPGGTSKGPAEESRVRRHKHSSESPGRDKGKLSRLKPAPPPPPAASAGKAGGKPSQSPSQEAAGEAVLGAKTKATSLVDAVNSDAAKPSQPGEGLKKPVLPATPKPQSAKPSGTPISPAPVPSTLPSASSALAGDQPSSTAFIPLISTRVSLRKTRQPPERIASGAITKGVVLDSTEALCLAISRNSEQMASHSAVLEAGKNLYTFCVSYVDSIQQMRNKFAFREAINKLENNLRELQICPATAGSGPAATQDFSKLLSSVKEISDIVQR
Description: (§6) The effect of SAB298 on a panel of 36 recombinant kinases, was screed with the radioisotope filter binding assay employing 10 concentrations of the compound with 10 µM ATP (Reaction Biology Corporation, Malvern, PA). In addition, we tested the endogenous kinome response to SAB298 (0.05 µM, 0.5 µM and 5 µM) in lysates from two melanoma cell lines (YUSIV and YUSIK) employing the KiNativ® platform (ActivX Biosciences Inc., La Jolla, CA). KiNativ® is a robust, high performance mass spectrometry (LC-MS^2) assay that uses biotinylated probes to measure relevant changes in the affinity to the ATP-binding sites of 205 native kinases as a function of cellular context. We also validated SAB298 effect on the activity of SRC-family kinases by probing for phosphorylated Y416, the marker of activated SFKs, with anti-IEDNEpYTAR antibodies (also known as Y419, #2101, Cell Signaling Technology, Beverly, MA). In some cases the cells were incubated overnight with 20 µM proteasome inhibitor MG-132 (CAS 133407-82-6, Millipore Sigma, Burlington, MA) to rescue degradation.
(§7) Supplemntary Table 3: Radioisotope filter activity assay Tests for SAB298 target protein
(§8) *These are results from 10 point dose response test employed with 10 µM ATP. […]
(§9) SRC TRCN0000195339 3ʹUTR […]
(§10) YES TRCN0000001611 CDS […]
(§11) FYN TRCN0000003099 CDS […]
(§12) LY N TRCN0000230901 CDS […]

ARAF = biological target: T2, ARAF (Homo sapiens, UniProt P10398); test: as above; type: biochemical; conditions: 10 point dose response, 10 µM ATP
T2 construct: purchased Reaction Biology Corporation
Description: as §6, §7, §8, §9, §10, §11, §12

BLK = biological target: T3, BLK (Homo sapiens, UniProt P51451); test: as above; type: biochemical; conditions: 10 point dose response, 10 µM ATP
T3 construct: purchased Reaction Biology Corporation
T3 sequence (P51451 whole entry): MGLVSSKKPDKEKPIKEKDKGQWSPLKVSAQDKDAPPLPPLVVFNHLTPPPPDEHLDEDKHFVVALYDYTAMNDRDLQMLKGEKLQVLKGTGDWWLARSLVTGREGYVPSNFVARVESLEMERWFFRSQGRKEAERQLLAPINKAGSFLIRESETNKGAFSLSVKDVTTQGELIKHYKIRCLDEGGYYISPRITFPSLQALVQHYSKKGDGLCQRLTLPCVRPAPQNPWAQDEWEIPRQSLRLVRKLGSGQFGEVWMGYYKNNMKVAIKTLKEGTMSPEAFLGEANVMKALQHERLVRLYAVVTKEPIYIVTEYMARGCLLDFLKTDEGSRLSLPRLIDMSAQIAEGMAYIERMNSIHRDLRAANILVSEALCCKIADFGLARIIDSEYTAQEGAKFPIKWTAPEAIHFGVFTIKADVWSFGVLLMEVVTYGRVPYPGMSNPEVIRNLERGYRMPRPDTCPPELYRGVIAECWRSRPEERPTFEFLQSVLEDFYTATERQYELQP
Description: as §6, §7, §8, §9, §10, §11, §12

BRAF = biological target: T4, BRAF (Homo sapiens, UniProt P15056); test: as above; type: biochemical; conditions: 10 point dose response, 10 µM ATP
T4 construct: purchased Reaction Biology Corporation
Description: as §6, §7, §8, §9, §10, §11, §12

BRK = biological target: T5, BRK (Homo sapiens, UniProt Q13882); test: as above; type: biochemical; conditions: 10 point dose response, 10 µM ATP
T5 construct: purchased Reaction Biology Corporation
T5 sequence (Q13882 whole entry): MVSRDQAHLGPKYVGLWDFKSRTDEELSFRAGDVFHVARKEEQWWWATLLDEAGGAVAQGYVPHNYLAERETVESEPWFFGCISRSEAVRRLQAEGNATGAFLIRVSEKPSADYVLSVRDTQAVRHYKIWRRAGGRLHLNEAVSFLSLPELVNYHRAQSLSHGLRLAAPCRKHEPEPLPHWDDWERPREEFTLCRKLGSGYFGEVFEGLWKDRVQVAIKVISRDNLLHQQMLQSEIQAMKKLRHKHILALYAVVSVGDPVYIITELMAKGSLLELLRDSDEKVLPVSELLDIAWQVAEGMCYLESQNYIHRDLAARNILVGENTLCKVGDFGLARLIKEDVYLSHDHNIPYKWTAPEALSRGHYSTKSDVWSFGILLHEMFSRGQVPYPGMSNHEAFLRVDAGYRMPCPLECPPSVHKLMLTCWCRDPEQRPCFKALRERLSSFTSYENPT
Description: as §6, §7, §8, §9, §10, §11, §12

BTK = biological target: T6, BTK (Homo sapiens, UniProt Q06187); test: as above; type: biochemical; conditions: 10 point dose response, 10 µM ATP
T6 construct: purchased Reaction Biology Corporation
Description: as §6, §7, §8, §9, §10, §11, §12

CDK4/Cyclin D1 = biological target: T7, CDK4/Cyclin D1 (Homo sapiens, UniProt P11802); test: as above; type: biochemical; conditions: 10 point dose response, 10 µM ATP
T7 construct: purchased Reaction Biology Corporation
T7 sequence (P11802 whole entry): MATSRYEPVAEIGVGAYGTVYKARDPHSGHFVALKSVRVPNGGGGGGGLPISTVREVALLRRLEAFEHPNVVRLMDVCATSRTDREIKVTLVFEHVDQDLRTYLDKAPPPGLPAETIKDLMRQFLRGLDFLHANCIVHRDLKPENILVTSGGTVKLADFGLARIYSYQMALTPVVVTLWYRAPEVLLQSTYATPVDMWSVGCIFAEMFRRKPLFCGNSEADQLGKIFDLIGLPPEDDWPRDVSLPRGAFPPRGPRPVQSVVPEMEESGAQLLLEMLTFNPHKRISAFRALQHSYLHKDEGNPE
T7 sequence (P24385 whole entry partner): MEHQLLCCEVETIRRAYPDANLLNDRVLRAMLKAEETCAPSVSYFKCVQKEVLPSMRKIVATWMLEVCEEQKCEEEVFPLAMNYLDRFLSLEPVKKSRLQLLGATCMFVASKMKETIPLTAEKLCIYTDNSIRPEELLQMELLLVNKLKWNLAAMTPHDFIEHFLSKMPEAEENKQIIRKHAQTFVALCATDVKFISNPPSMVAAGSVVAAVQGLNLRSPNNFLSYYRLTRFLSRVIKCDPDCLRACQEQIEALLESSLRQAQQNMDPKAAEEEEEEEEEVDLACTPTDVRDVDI
Description: as §6, §7, §8, §9, §10, §11, §12

FGR = biological target: T8, FGR (Homo sapiens, UniProt P09769); test: as above; type: biochemical; conditions: 10 point dose response, 10 µM ATP
T8 construct: purchased Reaction Biology Corporation
Description: as §6, §7, §8, §9, §10, §11, §12

FLT3 = biological target: T9, FLT3 (Homo sapiens, UniProt P36888); test: as above; type: biochemical; conditions: 10 point dose response, 10 µM ATP
T9 construct: purchased Reaction Biology Corporation
Description: as §6, §7, §8, §9, §10, §11, §12

FYN = biological target: T10, FYN (Homo sapiens, UniProt P06241); test: as above; type: biochemical; conditions: 10 point dose response, 10 µM ATP
T10 construct: purchased Reaction Biology Corporation
T10 sequence (P06241 whole entry): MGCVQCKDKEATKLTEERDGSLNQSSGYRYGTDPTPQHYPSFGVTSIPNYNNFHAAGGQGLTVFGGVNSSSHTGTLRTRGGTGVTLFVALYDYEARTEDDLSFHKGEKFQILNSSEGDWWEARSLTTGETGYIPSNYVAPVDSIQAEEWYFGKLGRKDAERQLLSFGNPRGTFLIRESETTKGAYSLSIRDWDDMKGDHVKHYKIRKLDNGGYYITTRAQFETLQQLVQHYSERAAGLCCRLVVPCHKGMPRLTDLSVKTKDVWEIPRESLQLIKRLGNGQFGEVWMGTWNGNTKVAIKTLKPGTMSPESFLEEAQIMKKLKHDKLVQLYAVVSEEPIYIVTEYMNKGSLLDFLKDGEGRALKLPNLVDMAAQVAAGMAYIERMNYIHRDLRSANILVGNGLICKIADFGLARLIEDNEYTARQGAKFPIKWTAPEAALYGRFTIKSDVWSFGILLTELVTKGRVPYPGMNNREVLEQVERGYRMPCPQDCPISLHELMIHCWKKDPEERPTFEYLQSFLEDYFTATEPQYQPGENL
Description: as §6, §7, §8, §9, §10, §11, §12

HCK = biological target: T11, HCK (Homo sapiens, UniProt P08631); test: as above; type: biochemical; conditions: 10 point dose response, 10 µM ATP
T11 construct: purchased Reaction Biology Corporation
T11 sequence (P08631 whole entry): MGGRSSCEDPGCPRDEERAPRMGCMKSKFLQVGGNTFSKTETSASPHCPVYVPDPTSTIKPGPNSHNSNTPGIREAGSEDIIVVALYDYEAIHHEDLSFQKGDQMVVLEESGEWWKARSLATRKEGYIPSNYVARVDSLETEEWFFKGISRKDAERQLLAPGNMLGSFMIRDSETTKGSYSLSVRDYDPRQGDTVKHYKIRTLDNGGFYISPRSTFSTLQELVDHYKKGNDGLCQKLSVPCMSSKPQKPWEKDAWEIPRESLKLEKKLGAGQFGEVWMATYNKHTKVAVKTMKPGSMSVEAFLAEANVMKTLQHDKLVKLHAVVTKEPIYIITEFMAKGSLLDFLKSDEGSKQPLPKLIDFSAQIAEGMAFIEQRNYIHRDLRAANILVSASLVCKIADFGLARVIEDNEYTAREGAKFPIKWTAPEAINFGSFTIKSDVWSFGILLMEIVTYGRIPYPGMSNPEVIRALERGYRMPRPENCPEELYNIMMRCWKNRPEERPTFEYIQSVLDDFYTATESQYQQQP
Description: as §6, §7, §8, §9, §10, §11, §12

IGF1R = biological target: T12, IGF1R (Homo sapiens, UniProt P08069); test: as above; type: biochemical; conditions: 10 point dose response, 10 µM ATP
T12 construct: purchased Reaction Biology Corporation
Description: as §6, §7, §8, §9, §10, §11, §12

RAF1 = biological target: T13, RAF1 (Homo sapiens, UniProt P04049); test: as above; type: biochemical; conditions: 10 point dose response, 10 µM ATP
T13 construct: purchased Reaction Biology Corporation
Description: as §6, §7, §8, §9, §10, §11, §12

WEE1 = biological target: T14, WEE1 (Homo sapiens, UniProt P30291); test: as above; type: biochemical; conditions: 10 point dose response, 10 µM ATP
T14 construct: purchased Reaction Biology Corporation
T14 sequence (P30291 whole entry): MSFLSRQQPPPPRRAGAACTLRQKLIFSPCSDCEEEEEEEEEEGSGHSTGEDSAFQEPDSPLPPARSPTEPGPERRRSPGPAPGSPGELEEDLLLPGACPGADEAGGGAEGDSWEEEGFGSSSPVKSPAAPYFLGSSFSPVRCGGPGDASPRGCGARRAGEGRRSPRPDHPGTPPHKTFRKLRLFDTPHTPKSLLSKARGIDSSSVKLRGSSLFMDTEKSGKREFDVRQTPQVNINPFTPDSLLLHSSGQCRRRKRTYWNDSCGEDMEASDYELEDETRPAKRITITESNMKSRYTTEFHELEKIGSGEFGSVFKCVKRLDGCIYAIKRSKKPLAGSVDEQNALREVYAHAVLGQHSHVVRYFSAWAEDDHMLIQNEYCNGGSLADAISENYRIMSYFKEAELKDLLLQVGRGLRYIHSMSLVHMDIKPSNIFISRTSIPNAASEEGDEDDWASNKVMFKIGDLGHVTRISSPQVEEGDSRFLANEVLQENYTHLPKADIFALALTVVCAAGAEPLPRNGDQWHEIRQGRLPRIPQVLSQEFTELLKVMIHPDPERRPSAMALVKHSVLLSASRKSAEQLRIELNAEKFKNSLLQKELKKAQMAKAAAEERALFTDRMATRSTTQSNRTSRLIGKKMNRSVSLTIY
Description: as §6, §7, §8, §9, §10, §11, §12

[4] = Clinical signs of toxicity in tumor bearing mice; type: in vivo; conditions: daily intraperitoneal SAB298
Description: All procedures involving animals were approved by the Institutional Animal Care and Use Committee of Yale University. YUSIK melanoma cells were grown to 80% confluency in 150 cm^2 flasks, detached by trypsinization, washed with PBS, and cell pellets were resuspended in 1:1 mixture of PBS and matrigel (BD Bioscience Cat #354234) to sustain cell viability. The cells (4 × 10^6/100 µl) were injected subcutaneously in the back flank of six weeks old female athymic Nude-Foxn1nu (nu/nu) mice (Charles River Laboratories, Wilmington, MA), and tumors were measuring daily with a caliper (length, width, and depth). When tumors reached palpable size (between 25–40 mm^3), the animals were randomized by tumor size and body weigh into two groups and were daily injected intraperitoneally with SAB298 (batch #AU0588-91, Sabila Biosciences LLC, 5 Overlook Road, New City, New York, 10956) or vehicle as controls (N = 6/each). […] The vehicle contained the same reagents but without SAB298.
The tumors size and body weight were measured daily and the mice were checked for clinical signs of toxicity, such as lethargy, neurological symptoms, diarrhea, discharges, morbidity, piloerection and weight loss (>20%).

CSK = CSK (Homo sapiens, UniProt P41240); test: KiNativ in situ kinase profiling in melanoma cell lysates; type: binding; set-up: we tested the endogenous kinome response to SAB298; host or cells: YUSIV and YUSIK melanoma cell lysates; conditions: 3-point dose response
Chain of CSK (P41240 whole entry): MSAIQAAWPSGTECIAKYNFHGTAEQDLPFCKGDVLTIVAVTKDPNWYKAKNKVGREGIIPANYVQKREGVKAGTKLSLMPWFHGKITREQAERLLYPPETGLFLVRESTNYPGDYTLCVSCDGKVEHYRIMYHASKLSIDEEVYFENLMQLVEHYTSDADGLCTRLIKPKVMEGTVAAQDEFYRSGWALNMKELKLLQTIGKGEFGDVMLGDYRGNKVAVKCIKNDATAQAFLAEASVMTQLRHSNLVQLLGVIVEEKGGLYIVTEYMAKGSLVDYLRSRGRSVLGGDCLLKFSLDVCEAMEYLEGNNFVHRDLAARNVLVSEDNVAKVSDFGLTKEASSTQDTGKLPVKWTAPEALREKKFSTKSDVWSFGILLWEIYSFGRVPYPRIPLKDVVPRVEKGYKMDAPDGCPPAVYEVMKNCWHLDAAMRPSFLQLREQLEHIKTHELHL
Description: as §6

[5] = 50% growth inhibition, five dose, average of 2 experiments
[6] = cytotoxic concentration, 50% reduction in measured protein, read-out: LC50 (the source's name)

Nc1ncnc2c1c(-c1ccc(Oc3ccccc3)cc1)nn2C[C@@H]1SSC[C@@H]1O [SAB298, (3S, 4S)-3-((4-amino-3-(4-phenoxyphenyl)-1H-pyrazolo[3,4-d]pyrimidin-1-yl)methyl)-1,2-dithiolan-4-ol]
GI50 [1, 5]: 181 nM | CC50 [1, 6]: 79300 nM | GI50 (NCI-1460 NSCLC cell line; [5]): 29 nM | CC50 (NCI-1460 NSCLC cell line; [6]): 551 nM | GI50 [2, 5]: 38 nM | CC50 [2, 6]: > 100000 nM | GI50 (SR leukemia cell line; [5]): 38 nM | CC50 (SR leukemia cell line; [6]): > 100000 nM | GI50 [3, 5]: 182 nM | CC50 [3, 6]: 872 nM | IC50 (ABL1): 4140 nM | IC50 (ARAF): 1200 nM | IC50 (BLK): 6.5 nM | IC50 (BRAF): > 10000 nM | IC50 (BRK): 35.5 nM | IC50 (BTK): 78 nM | IC50 (CDK4/Cyclin D1): > 10000 nM | IC50 (FGR): 7.8 nM | IC50 (FLT3): 71 nM | IC50 (FYN): 21.7 nM | IC50 (HCK): 16.3 nM | IC50 (IGF1R): > 10000 nM | IC50 (RAF1): 2800 nM | IC50 (WEE1): > 10000 nM | Clinical signs of toxicity (lethargy, neurological symptoms, diarrhea, discharges, morbidity, piloerection, weight loss >20%) [4]: None of them or any other abnormal indication were observed | IC50 (CSK; CSK in YUSIK lysate): 910 nM | IC50 (CSK; CSK in YUSIV lysate): 420 nM
